A short description of data set [1]: Half life in rat at 0.5 mg/kg, iv. Format: ADME, organism-based. Particulars: in vivo.
Data set [2] is described as follows: Cmax in rat at 5 mg/kg, po. Particulars: in vivo. Format: ADME, organism-based. Details: dose 5 mg/kg, route oral.
Data set [3] in a line: Volume of distribution at steady state in mouse at 0.5 mg/kg, iv. Particulars: in vivo, read-out: Vdss. Format: ADME, organism-based.
A short description of data set [4]: Volume of distribution at steady state in mini pig at 0.5 mg/kg, iv. Format: ADME, organism-based, Sus scrofa. The note with it: in vivo, read-out: Vdss.
The nature of data set [5]: Oral bioavailability in mouse at 5 mg/kg. The format is ADME, organism-based. The note with it: in vivo.
A short description of data set [6]: Unbound fraction in human plasma relative to mifepristone. The format is ADME, cell-free.
Data set [7] deals with T1, Progesterone receptor (Homo sapiens, UniProt P06401).
T1 sequence (P06401 whole entry): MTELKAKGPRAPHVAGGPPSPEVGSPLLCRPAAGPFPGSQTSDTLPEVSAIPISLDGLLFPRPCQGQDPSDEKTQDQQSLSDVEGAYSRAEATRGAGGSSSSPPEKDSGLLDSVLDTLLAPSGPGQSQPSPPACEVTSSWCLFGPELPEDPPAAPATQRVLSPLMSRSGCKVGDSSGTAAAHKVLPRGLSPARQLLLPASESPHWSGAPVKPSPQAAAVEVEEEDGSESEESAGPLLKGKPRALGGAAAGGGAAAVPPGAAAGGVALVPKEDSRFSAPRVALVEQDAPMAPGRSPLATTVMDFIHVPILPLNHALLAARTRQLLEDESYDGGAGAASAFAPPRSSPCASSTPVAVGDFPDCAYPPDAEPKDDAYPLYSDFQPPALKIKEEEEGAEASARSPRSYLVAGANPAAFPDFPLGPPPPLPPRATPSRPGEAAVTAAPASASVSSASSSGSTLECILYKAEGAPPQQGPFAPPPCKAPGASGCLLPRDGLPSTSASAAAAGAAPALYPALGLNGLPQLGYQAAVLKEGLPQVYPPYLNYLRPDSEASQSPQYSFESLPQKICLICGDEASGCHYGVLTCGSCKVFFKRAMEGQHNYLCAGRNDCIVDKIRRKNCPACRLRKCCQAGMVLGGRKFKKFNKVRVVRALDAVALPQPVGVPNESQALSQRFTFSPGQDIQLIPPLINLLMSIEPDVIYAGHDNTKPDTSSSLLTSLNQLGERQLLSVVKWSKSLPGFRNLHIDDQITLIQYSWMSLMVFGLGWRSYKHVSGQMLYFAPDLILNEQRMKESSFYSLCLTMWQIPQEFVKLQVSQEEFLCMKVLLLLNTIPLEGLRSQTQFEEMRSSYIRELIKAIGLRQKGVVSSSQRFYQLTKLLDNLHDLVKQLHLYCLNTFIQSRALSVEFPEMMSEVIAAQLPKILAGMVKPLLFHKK
The data set can be described thus: Agonist activity at human PR expressed in CHO-K1 cells incubated for 20 hrs by luciferase reporter gene assay. Format: cell-based. The note with it: cho-k1, 20 h. A general note: A reporter such as luciferase makes a cellular process visible.

For data set [8], the target named is T2, Glucocorticoid receptor (Sus scrofa) (UniProt Q9N1U3).
T2 sequence (whole entry): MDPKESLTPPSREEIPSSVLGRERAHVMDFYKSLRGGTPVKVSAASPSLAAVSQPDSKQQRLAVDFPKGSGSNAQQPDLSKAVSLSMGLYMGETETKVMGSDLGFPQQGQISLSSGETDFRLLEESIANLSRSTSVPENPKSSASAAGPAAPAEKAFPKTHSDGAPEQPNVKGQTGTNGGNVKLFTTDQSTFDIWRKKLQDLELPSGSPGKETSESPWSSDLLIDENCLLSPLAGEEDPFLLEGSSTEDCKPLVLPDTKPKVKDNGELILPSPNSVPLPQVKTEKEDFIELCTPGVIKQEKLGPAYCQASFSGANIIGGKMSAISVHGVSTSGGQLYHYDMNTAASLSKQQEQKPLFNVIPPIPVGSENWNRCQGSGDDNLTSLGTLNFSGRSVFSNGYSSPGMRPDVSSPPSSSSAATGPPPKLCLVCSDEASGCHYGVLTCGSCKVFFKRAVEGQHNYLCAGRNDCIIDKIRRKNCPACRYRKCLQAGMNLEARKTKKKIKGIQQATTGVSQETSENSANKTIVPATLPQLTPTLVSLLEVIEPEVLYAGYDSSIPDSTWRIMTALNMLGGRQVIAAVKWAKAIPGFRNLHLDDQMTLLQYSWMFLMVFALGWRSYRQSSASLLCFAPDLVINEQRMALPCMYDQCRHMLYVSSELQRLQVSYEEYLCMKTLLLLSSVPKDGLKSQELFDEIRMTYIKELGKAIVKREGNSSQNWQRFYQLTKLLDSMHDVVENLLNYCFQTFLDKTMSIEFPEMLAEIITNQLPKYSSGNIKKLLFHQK
The data set can be described thus: (§1) Antagonist activity at GR in mini pig PBMC assessed as reduction in dexamethasone-induced GILZ gene expression incubated for 24 hrs by RT-qPCR method. Format: cell-based. A general note: Quantitative PCR measures a nucleic acid by following its amplification.

Data set [9] concerns the target T3, Glucocorticoid receptor (Sus scrofa, UniProt Q9N1U3).
T3 sequence (Q9N1U3 whole entry): T2 sequence (whole entry)
The data set is described as §1. Format: cell-based.

The target in data set [10] is T4, Glucocorticoid receptor (Homo sapiens, UniProt P04150).
T4 sequence (P04150 whole entry): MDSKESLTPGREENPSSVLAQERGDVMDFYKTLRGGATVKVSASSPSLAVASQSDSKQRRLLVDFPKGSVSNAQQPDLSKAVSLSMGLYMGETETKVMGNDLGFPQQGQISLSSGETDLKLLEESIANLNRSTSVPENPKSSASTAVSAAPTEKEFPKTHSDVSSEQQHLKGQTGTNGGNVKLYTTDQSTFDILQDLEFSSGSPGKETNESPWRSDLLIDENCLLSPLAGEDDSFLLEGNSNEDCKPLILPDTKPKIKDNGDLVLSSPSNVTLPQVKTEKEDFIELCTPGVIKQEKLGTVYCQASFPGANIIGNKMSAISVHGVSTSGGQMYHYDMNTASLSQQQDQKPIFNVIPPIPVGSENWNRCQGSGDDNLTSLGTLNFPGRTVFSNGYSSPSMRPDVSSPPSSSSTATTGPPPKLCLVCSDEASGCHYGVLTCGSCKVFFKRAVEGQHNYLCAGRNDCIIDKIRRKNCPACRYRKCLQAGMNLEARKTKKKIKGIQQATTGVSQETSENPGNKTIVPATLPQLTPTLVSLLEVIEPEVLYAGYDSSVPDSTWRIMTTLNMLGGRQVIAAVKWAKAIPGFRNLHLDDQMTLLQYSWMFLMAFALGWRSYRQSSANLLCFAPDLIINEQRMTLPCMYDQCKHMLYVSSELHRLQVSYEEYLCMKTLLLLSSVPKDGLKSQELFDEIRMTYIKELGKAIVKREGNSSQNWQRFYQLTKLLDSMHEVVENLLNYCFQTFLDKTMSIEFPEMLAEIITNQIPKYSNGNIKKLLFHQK
Kind of data set: Antagonist activity at GR in human OVCAR5 assessed as reduction in dexamethasone-induced GILZ gene expression incubated for 24 hrs by RT-qPCR method.

Data set [11] deals with OVCAR-5. The data set can be described thus: Potentiation of carboplatin-induced antitumor activity against human OVCAR5 cells xenografted in chronic cortisol treated nude mouse assessed as reduction in tumor volume at 75 mg/kg, po BID dosed via gavage co-treated with gencitabine at 60 mg/kg dosed every 3 days for 4 doses. The format is functional, organism-based.

The record followed here is ChEMBL document CHEMBL4145686, “Discovery of a Potent and Selective Steroidal Glucocorticoid Receptor Antagonist (ORIC-101)” (J Med Chem, 2018).

SMILES strings stand for the structures. Activity calls are given as the source filed them. The calls are words filed in the database; no cut-off is given here.

By half-life is commonly meant the time in which the quantity being followed falls by half. Low readings indicate fast loss, high ones slow loss. The Cmax is the highest concentration seen after dosing. As a reminder, the bioavailability is dose-corrected exposure relative to a reference, in per cent. Low readings indicate little systemic uptake, high ones much systemic uptake. Usually IC50 stands for the midpoint of a concentration-inhibition curve.

`CC(C)N(C)c1ccc([C@H]2C[C@@]3(C)[C@@H](CC[C@@]3(O)C#CC(C)(C)C)[C@@H]3CCC4=CC(=O)CC[C@@H]4[C@H]32)cc1` showed a half-life in data set [1] of 4.4 h. Besides, in data set [2], the highest level (Cmax) was 149 ng/mL. The figures for the Vd in data set [3] and in data set [4] were 5.01 L/kg and 7.8 L/kg, respectively. The bioavailability in data set [5] is 21%. For the same compound, the Ratio in data set [6] worked out at 10. Also, the Activity result in [7] is “Not Active”. Moreover, the inhibition entry in data set [8] is “Dose-dependent effect”. Moreover, the figures for the IC50 in [9] and in [10] were 181 nM and 21.2 nM, respectively. The outcome in [11] was Active.
